Values quoted from earlier work as cited in patent US11352671B2, “Predicting therapeutic response in Parkinson's disease” (Vanderbilt University, priority 2015, dated 2022).

Details: in vivo

share that crosses the blood-brain barrier: 5-10%
SMILES: N[C@@H](Cc1ccc(O)c(O)c1)C(=O)O [levodopa]
